# From US6960614B2, “Oxygenated esters of 4-lodo phenylamino benzhydroxamic acids” (Warner-Lambert Company, priority 2000, dated 2005)
# Tested on: MEK
# Assay: Cellular Assay for Measuring MEK Inhibition (inhibition of ERK phosphorylation in C26 cells, Western blot)
# Assay type: cell-based, murine
# Details: for IC50: inhibition of ERK phosphorylation in murine colon 26 (C26) carcinoma cells, determined graphically from dose response curve; for % Inhibition @ 0.1 μM / % Inhibition @ 1 μM / % Inhibition @ 10 μM: ERK phosphorylation in C26 cells
# In short: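 Read-out is phospho-ERK1/2 by Western blot, normalized against total ERK1/2 after stripping and re-probing. Murine C26 colon carcinoma cells in exponential growth were exposed to a range of compound concentrations at 37° C before lysis.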
IC50 [µM],SMILES,% Inhibition @ 0.1 μM [%],% Inhibition @ 1 μM [%],% Inhibition @ 10 μM [%]
0.014,"CC(O)CONC(=O)c1cc(F)c(F)cc1Nc1ccc(I)cc1F (centres unmarked) [Example 169, 4,5-Difluoro-2-(2-fluoro-4-iodo-phenylamino)-N-(2-hydroxy-propoxy)-benzamide]",–,–,–
–,"CC(C)(O)CONC(=O)c1cc(F)c(F)c(F)c1Nc1ccc(I)cc1Cl [Example 170, 2-(2-Chloro-4-iodo-phenylamino)-3,4,5-trifluoro-N-(2-hydroxy-2-methyl-propoxy)-benzamide]",19,85.7,–
–,"Cc1cc(I)ccc1Nc1c(C(=O)NOCC(C)(C)O)cc(F)c(F)c1F [Example 171, 3,4,5-Trifluoro-N-(2-hydroxy-2-methyl-propoxy)-2-(4-iodo-2-methyl-phenylamino)-benzamide]",35.6,94.6,–
–,"Cc1cc(I)ccc1Nc1c(C(=O)NOCC(C)(C)O)cc(Br)c(F)c1F [Example 172, 5-Bromo-3,4-difluoro-N-(2-hydroxy-2-methyl-propoxy)-2-(4-iodo-2-methyl-phenylamino)-benzamide]",41.9,92.9,–
0.3,"CC(C)(O)CONC(=O)c1cc(Br)c(F)c(F)c1Nc1ccc(I)cc1Cl [Example 173, 5-Bromo-2-(2-chloro-4-iodo-phenylamino)-3,4-difluoro-N-(2-hydroxy-2-methyl-propoxy)-benzamide]",–,–,–
0.1,"Cc1cc(I)ccc1Nc1c(C(=O)NOCC(C)(C)O)ccc(F)c1F [Example 174, 3,4-Difluoro-N-(2-hydroxy-2-methyl-propoxy)-2-(4-iodo-2-methyl-phenylamino)-benzamide]",–,–,–
0.18,"CC(C)(O)CONC(=O)c1cc(Cl)c(F)c(F)c1Nc1ccc(I)cc1Cl [Example 175, 5-Chloro-2-(2-chloro-4-iodo-phenylamino)-3,4-difluoro-N-(2-hydroxy-2-methyl-propoxy)-benzamide]",–,–,–
–,"Cc1cc(I)ccc1Nc1c(C(=O)NOCC(C)(C)O)cc(Cl)c(F)c1F [Example 176, 5-Chloro-3,4-difluoro-N-(2-hydroxy-2-methyl-propoxy)-2-(4-iodo-2-methyl-phenylamino)-benzamide]",14.1,87.7,–
–,"CC(C)(O)CONC(=O)c1ccc(F)c(F)c1Nc1ccc(I)cc1F [Example 177, 3,4-Difluoro-2-(2-fluoro-4-iodo-phenylamino)-N-(2-hydroxy-2-methyl-propoxy)-benzamide]",91.6,95.7,–
–,"CC(C)(O)CONC(=O)c1cc(Br)c(F)c(F)c1Nc1ccc(I)cc1F [Example 178, 5-Bromo-3,4-difluoro-2-(2-fluoro-4-iodo-phenylamino)-N-(2-hydroxy-2-methyl-propoxy)-benzamide]",61.8,94.9,–
–,"CC(C)(O)CONC(=O)c1cc(Cl)c(F)c(F)c1Nc1ccc(I)cc1F [Example 179, 5-Chloro-3,4-difluoro-2-(2-fluoro-4-iodo-phenylamino)-N-(2-hydroxy-2-methyl-propoxy)-benzamide]",90.4,99.3,–
–,"CC(C)(O)CONC(=O)c1cc(Cl)c(F)c(F)c1Nc1ccc(F)cc1F [Example 180, 5-Chloro-2-(2,4-difluoro-phenylamino)-3,4-difluoro-N-(2-hydroxy-2-methyl-propoxy)-benzamide]",–,34,58.6
–,"CC(C)(O)CONC(=O)c1ccc(F)c(F)c1Nc1ccc(F)cc1F [Example 181, 2-(2,4-Difluoro-phenylamino)-3,4-difluoro-N-(2-hydroxy-2-methyl-propoxy)-benzamide]",–,0,65.1
–,"CC(C)(O)CONC(=O)c1ccc(F)c(F)c1Nc1ccc(Br)cc1F [Example 182, 2-(4-Bromo-2-fluoro-phenylamino)-3,4-difluoro-N-(2-hydroxy-2-methyl-propoxy)-benzamide]",13.1,81.9,–
0.053,O=C(NOCC(O)COc1ccccc1)c1ccc(F)c(F)c1Nc1ccc(I)cc1Cl (centres unmarked) [Example 183],–,–,–
–,"O=C(NOCC(O)COc1ccccc1)c1cc(F)c(F)c(F)c1Nc1ccc(I)cc1Cl (centres unmarked) [Example 184, 2-(2-Chloro-4-iodo-phenylamino)-3,4,5-trifluoro-N-(2-hydroxy-3-phenoxy-propoxy)-benzamide]",16.1,82.5,–
–,"Cc1cc(I)ccc1Nc1c(C(=O)NOCC(O)COc2ccccc2)cc(F)c(F)c1F (centres unmarked) [Example 185, 3,4,5-Trifluoro-N-(2-hydroxy-3-phenoxy-propoxy)-2-(4-iodo-2-methyl-phenylamino)-benzamide]",6.2,71.9,–
0.034,"O=C(NOCC(O)COc1ccccc1)c1cc(Br)c(F)c(F)c1Nc1ccc(I)cc1Cl (centres unmarked) [Example 186, 5-Bromo-2-(2-chloro-4-iodo-phenylamino)-3,4-difluoro-N-(2-hydroxy-3-phenoxy-propoxy)-benzamide]",–,–,–

IC50 [µM],SMILES,% Inhibition @ 0.1 μM [%],% Inhibition @ 1 μM [%],% Inhibition @ 10 μM [%]
–,"Cc1cc(I)ccc1Nc1c(C(=O)NOCC(O)COc2ccccc2)cc(Br)c(F)c1F (centres unmarked) [Example 187, 5-Bromo-3,4-difluoro-N-(2-hydroxy-3-phenoxy-propoxy)-2-(4-iodo-2-methyl-phenylamino)-benzamide]",13.8,83.3,–
0.044,"Cc1cc(I)ccc1Nc1c(C(=O)NOCC(O)COc2ccccc2)ccc(F)c1F (centres unmarked) [Example 188, 3,4-Difluoro-N-(2-hydroxy-3-phenoxy-propoxy)-2-(4-iodo-2-methyl-phenylamino)-benzamide]",–,–,–
–,"Cc1cc(I)ccc1Nc1c(C(=O)NOCC(O)COc2ccccc2)cc(Cl)c(F)c1F (centres unmarked) [Example 190, 5-Chloro-3,4-difluoro-N-(2-hydroxy-3-phenoxy-propoxy)-2-(4-iodo-2-methyl-phenylamino)-benzamide]",51.5,94.6,–
0.006,"O=C(NOCC(O)COc1ccccc1)c1ccc(F)c(F)c1Nc1ccc(I)cc1F (centres unmarked) [Example 191, 3,4-Difluoro-2-(2-fluoro-4-iodo-phenylamino)-N-(2-hydroxy-3-phenoxy-propoxy)-benzamide]",–,–,–
0.007,"O=C(NOCC(O)COc1ccccc1)c1cc(Cl)c(F)c(F)c1Nc1ccc(I)cc1F (centres unmarked) [Example 192, 5-Chloro-3,4-difluoro-2-(2-fluoro-4-iodo-phenylamino)-N-(2-hydroxy-3-phenoxy-propoxy)-benzamide]",–,–,–
0.01,"O=C(NOCC(O)COc1ccccc1)c1cc(F)c(F)cc1Nc1ccc(I)cc1F (centres unmarked) [Example 193, 4,5-Difluoro-2-(2-fluoro-4-iodo-phenylamino)-N-(2-hydroxy-3-phenoxy-propoxy)-benzamide]",–,–,–
–,"O=C(NOCC(O)COc1ccccc1)c1cc(Cl)c(F)c(F)c1Nc1ccc(F)cc1F (centres unmarked) [Example 194, 5-Chloro-2-(2,4-difluoro-phenylamino)-3,4-difluoro-N-(2-hydroxy-3-phenoxy-propoxy)-benzamide]",0,0,–
–,"O=C(NOCC(O)COc1ccccc1)c1ccc(F)c(F)c1Nc1ccc(F)cc1F (centres unmarked) [Example 195, 2-(2,4-Difluoro-phenylamino)-3,4-difluoro-N-(2-hydroxy-3-phenoxy-propoxy)-benzamide]",–,26.7,82.6
–,"O=C(NOCC(O)COc1ccccc1)c1ccc(F)c(F)c1Nc1ccc(Cl)cc1F (centres unmarked) [Example 196, 2-(4-Chloro-2-fluoro-phenylamino)-3,4-difluoro-N-(2-hydroxy-3-phenoxy-propoxy)-benzamide]",10.2,82.8,–
0.051,"Cc1cc(I)ccc1Nc1c(C(=O)NOCC(C)(C)CO)ccc(F)c1F [Example 197, 3,4-Difluoro-N-(3-hydroxy-2,2-dimethyl-propoxy)-2-(4-iodo-2-methyl-phenylamino)-benzamide]",–,–,–
–,"CC(C)(CO)CONC(=O)c1cc(F)c(F)c(F)c1Nc1ccc(I)cc1Cl [Example 198, 2-(2-Chloro-4-iodo-phenylamino)-3,4,5-trifluoro-N-(3-hydroxy-2,2-dimethyl-propoxy)-benzamide]",0,43.5,–
0.1,"Cc1cc(I)ccc1Nc1c(C(=O)NOCC(C)(C)CO)cc(F)c(F)c1F [Example 199, 3,4,5-Trifluoro-N-(3-hydroxy-2,2-dimethyl-propoxy)-2-(4-iodo-2-methyl-phenylamino)-benzamide]",–,–,–
0.3,"CC(C)(CO)CONC(=O)c1cc(Cl)c(F)c(F)c1Nc1ccc(I)cc1Cl [Example 200, 5-Chloro-2-(2-chloro-4-iodo-phenylamino)-3,4-difluoro-N-(3-hydroxy-2,2-dimethyl-propoxy)-benzamide]",–,–,–
0.1,"Cc1cc(I)ccc1Nc1c(C(=O)NOCC(C)(C)CO)cc(Cl)c(F)c1F [Example 201, 5-Chloro-3,4-difluoro-N-(3-hydroxy-2,2-dimethyl-propoxy)-2-(4-iodo-2-methyl-phenylamino)-benzamide]",–,–,–
–,"CC(C)(CO)CONC(=O)c1ccc(F)c(F)c1Nc1ccc(I)cc1F [Example 202, 3,4-Difluoro-2-(2-fluoro-4-iodo-phenylamino)-N-(3-hydroxy-2,2-dimethyl-propoxy)-benzamide]",59.7,94.6,–
–,"CC(C)(CO)CONC(=O)c1cc(Cl)c(F)c(F)c1Nc1ccc(F)cc1F [Example 203, 5-Chloro-2-(2,4-difluoro-phenylamino)-3,4-difluoro-N-(3-hydroxy-2,2-dimethyl-propoxy)-benzamide]",–,0,37.4
0.14,"COCCOCCONC(=O)c1cc(Br)c(F)c(F)c1Nc1ccc(I)cc1C [Example 206, 5-Bromo-3,4-difluoro-2-(4-iodo-2-methyl-phenylamino)-N-[2-(2-methoxy-ethoxy)-ethoxy]-benzamide]",–,–,–
0.212,"COCCOCCONC(=O)c1ccc(F)c(F)c1Nc1ccc(I)cc1Cl [Example 207, 2-(2-Chloro-4-iodo-phenylamino)-3,4-difluoro-N-[2-(2-methoxy-ethoxy)-ethoxy]-benzamide]",–,–,–
